Assay [1] has as its target 3',5'-cyclic-AMP phosphodiesterase 4B (Homo sapiens, UniProt Q07343). The assay is described as follows: Inhibition of human U937 cells-derived PDE4B using [3H]-cAMP as substrate after 30 mins.
Assay [2] is described as follows: Inhibition of PDE4 in human PBMC assessed as reduction in LPS-stimulated TNFalpha release preincubated for 30 mins followed by LPS stimulation for 18 hrs by TR-FRET assay. The format is cell-based. (Time-resolved FRET reads energy transfer from a long-lived donor to a nearby acceptor.)
Assay [3] concerns Mus musculus. The assay is described as follows: Anti-inflammatory activity in Swiss albino mouse model of sepsis assessed as inhibition of LPS-induced TNFalpha release at 10 mg/kg, po administered 30 mins prior to LPS challenge for 90 mins by ELISA relative to control. In kind it is functional.
Assay [4] deals with 3',5'-cyclic-AMP phosphodiesterase 4D (Homo sapiens, UniProt Q08499). The assay is described as follows: Inhibition of human U937 cells-derived PDE4D using [3H]-cAMP as substrate after 30 mins.
Sequence of 3',5'-cyclic-AMP phosphodiesterase 4D (Q08499 whole entry): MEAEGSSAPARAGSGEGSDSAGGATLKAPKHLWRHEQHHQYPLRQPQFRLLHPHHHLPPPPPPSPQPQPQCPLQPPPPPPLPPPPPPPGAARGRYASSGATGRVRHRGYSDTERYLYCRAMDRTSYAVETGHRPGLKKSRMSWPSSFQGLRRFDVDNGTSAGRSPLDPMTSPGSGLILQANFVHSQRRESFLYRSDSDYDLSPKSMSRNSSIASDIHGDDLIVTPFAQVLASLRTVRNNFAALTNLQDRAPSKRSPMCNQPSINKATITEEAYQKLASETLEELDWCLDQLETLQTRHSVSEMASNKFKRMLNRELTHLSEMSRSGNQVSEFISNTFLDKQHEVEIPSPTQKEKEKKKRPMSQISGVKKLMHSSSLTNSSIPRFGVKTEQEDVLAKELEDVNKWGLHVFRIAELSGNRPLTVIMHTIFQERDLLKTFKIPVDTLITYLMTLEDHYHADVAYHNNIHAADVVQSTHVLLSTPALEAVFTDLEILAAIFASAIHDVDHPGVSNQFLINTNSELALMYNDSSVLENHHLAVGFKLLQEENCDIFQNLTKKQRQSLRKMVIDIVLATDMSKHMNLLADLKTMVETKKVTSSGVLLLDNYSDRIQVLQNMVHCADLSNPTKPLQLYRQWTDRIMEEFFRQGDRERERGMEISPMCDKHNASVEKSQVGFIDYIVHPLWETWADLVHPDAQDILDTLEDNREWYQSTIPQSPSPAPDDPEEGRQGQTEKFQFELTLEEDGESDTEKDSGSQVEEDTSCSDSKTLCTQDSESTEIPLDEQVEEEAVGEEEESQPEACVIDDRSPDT
The species entered for assay [5] is Homo sapiens. As to the kind of experiment: Selectivity index, ratio of IC50 for human U937 cells-derived PDE4D to IC50 for human U937 cells-derived PDE4B.
Assay [6] has as its system Rattus norvegicus. As to the kind of experiment: Anti-inflammatory activity in Sprague-Dawley rat model of LPS-induced asthma/COPD assessed as inhibition of neutrophilia in BALF at 10 mg/kg, po administered 30 mins prior to LPS challenge for 40 mins and measured after 6 hrs relative to control. The format is functional.

SMILES strings stand for the structures.

Sequence of 3',5'-cyclic-AMP phosphodiesterase 4B (Q07343 whole entry): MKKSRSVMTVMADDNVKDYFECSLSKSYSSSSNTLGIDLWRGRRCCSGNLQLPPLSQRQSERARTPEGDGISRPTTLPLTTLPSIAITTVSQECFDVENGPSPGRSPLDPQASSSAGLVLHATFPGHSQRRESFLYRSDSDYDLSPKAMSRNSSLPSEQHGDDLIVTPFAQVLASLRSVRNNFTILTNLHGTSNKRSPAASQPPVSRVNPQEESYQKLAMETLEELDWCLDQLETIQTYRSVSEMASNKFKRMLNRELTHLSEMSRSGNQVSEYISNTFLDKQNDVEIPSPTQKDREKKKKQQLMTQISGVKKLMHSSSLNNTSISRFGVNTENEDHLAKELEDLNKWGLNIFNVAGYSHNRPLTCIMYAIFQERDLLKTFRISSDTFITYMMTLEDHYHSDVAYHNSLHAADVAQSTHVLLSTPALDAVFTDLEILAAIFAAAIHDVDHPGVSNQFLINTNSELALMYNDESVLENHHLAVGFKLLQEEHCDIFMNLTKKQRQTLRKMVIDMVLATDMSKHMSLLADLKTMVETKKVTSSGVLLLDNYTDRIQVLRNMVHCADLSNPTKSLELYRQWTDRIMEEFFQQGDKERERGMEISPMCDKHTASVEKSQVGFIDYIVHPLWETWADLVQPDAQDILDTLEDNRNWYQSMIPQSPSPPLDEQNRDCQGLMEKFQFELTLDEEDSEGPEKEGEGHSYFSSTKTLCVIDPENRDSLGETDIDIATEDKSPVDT

In general, IC50 refers to the concentration at which inhibition is half-maximal. Regarding `O=C(c1ccc(-c2ccccc2[N+](=O)[O-])o1)N1CCc2ccccc2C1`, the IC50 amounted to 66.3 µM in assay [1] and 151 µM in assay [2].

In general, inhibition in vivo refers to how much of the control response was suppressed. In the case of `O=C(c1ccc(-c2ccc(F)cc2F)o1)N1CCc2ccccc2C1`, the IC50 in assay [1] stood at 3 µM; in assay [2], 17.1 µM; in assay [4], 18.1 µM. The inhibition in vivo at 10 mg/kg in assay [3] was 30.8%; in assay [6], 29.5%. Also, the Ratio IC50 in assay [5] was determined as 6.03.

`O=C(c1ccc(-c2cccc(Cl)c2)o1)N1CCCc2ccccc21`: the values for the IC50 in assay [1], in assay [2] and in assay [4] were 18.9 µM, 62.5 µM and 96.8 µM, respectively. In addition, the Ratio IC50 in assay [5] amounted to 5.12.

With `O=C(c1ccc(-c2ccc(F)cc2)o1)N1CCCc2ccccc21`, the figures for the IC50 in assay [1], in assay [2] and in assay [4] were 6.1 µM, 22.1 µM and 40.3 µM, respectively. The Ratio IC50 in assay [5] is 6.6.

Take `O=C(c1ccc(-c2ccccc2Cl)o1)N1CCCc2ccccc21`: the IC50 amounted to 41.6 µM in assay [1] and 101 µM in assay [2].

Take `COc1ccc(C2CNC(=O)C2)cc1OC1CCCC1` (stereo unspecified) [ROLIPRAM]: the IC50 in assay [2] stood at 18.9 µM. The inhibition in vivo at 10 mg/kg is 42.9% in assay [3] and 34.2% in assay [6].

Consider `O=C(c1ccc(-c2ccccc2[N+](=O)[O-])o1)N1CCCc2ccccc21`, for which the results for the IC50 in assay [1] and in assay [2] were 66.9 µM and 128 µM, respectively.

With `O=C(c1ccc(-c2cccc([N+](=O)[O-])c2)o1)N1CCCc2ccccc21`, the IC50 in assay [1] worked out at 30.9 µM; in assay [2], 62.3 µM.

`O=C(c1ccc(-c2ccc([N+](=O)[O-])cc2)o1)N1CCCc2ccccc21`: the half-maximal inhibitory concentration (IC50) in assay [1] is 12.1 µM; in assay [2], 46.8 µM; in assay [4] it was 77.2 µM. Also, the Ratio IC50 in assay [5] is 6.38.

With `O=C(c1ccc(-c2ccc(F)cc2)o1)N1CCc2ccccc2C1`, the 50% inhibitory concentration (IC50) in assay [1] is 7.4 µM; in assay [2] it was 27.2 µM; in assay [4] it was 49.3 µM. Besides, in assay [5], the Ratio IC50 is 6.66.

Take `O=C(c1ccc(-c2ccc([N+](=O)[O-])cc2)o1)N1CCc2ccccc2C1`: the IC50 is 15.8 µM in assay [1], 46.3 µM in assay [2] and 88.3 µM in assay [4]. For the same compound, in assay [5], the Ratio IC50 came out at 5.39.

Take `O=C(c1ccc(-c2ccc(Br)cc2)o1)N1CCCc2ccccc21`: the IC50 in assay [1] turned out to be 46.8 µM; in assay [2], 131 µM.

As to `O=C(c1ccc(-c2ccc(F)cc2F)o1)N1CCCc2ccccc21`, the IC50 was 2.6 µM in assay [1], 16.2 µM in assay [2] and 15.6 µM in assay [4]. Also, the inhibition in vivo at 10 mg/kg in assay [3] is 39.6%; in assay [6] it was 34.1%. Besides, the Ratio IC50 in assay [5] came to 6.

For `O=C(c1ccc(-c2ccccc2F)o1)N1CCc2ccccc2C1`, the IC50 was 46.1 µM in assay [1] and 95.4 µM in assay [2].

With `O=C(c1ccc(-c2cccc(Cl)c2)o1)N1CCc2ccccc2C1`, the IC50 turned out to be 21.1 µM in assay [1] and 57.1 µM in assay [2].

For `O=C(c1ccc(-c2c(F)cccc2F)o1)N1CCCc2ccccc21`, the values for the half-maximal inhibitory concentration (IC50) in assay [1], in assay [2] and in assay [4] were 15.2 µM, 89.3 µM and 81.3 µM, respectively. Further, the Ratio IC50 in assay [5] stood at 5.34.

Take `O=C(c1ccc(-c2ccccc2)o1)N1CCc2ccccc2C1`: the values for the IC50 in assay [1] and in assay [2] were 79.6 µM and 188 µM, respectively.

As to `O=C(c1ccc(-c2cccc(F)c2)o1)N1CCCc2ccccc21`, the IC50 in assay [1] is 22.2 µM; in assay [2] it was 64.3 µM.

As to `O=C(c1ccc(-c2ccc(Br)cc2)o1)N1CCc2ccccc2C1`, the values for the IC50 in assay [1] and in assay [2] were 58.4 µM and 156 µM, respectively.

For the compound `O=C(c1ccc(-c2ccc(Cl)cc2)o1)N1CCCc2ccccc21`, the values for the IC50 in assay [1], in assay [2] and in assay [4] were 3.5 µM, 27.2 µM and 21.3 µM, respectively. For the same compound, in assay [5], the Ratio IC50 came to 6.09.

For `O=C(c1ccc(-c2ccccc2Cl)o1)N1CCc2ccccc2C1`, the IC50 in assay [1] was found to be 51.6 µM; in assay [2] it was 121 µM.

In the case of `O=C(c1ccc(-c2cccc([N+](=O)[O-])c2)o1)N1CCc2ccccc2C1`, the results for the IC50 in assay [1] and in assay [2] were 39.9 µM and 72.5 µM, respectively.

`O=C(c1ccc(-c2cccc(F)c2)o1)N1CCc2ccccc2C1`: the IC50 in assay [1] was found to be 25.7 µM; in assay [2], 78.1 µM.

As for `O=C(c1ccc(-c2c(F)cccc2F)o1)N1CCc2ccccc2C1`, the IC50 in assay [1] was 17.1 µM; in assay [2] it was 91.9 µM; in assay [4] it was 89.2 µM. The Ratio IC50 in assay [5] came out at 4.21.

As for `COc1ccc(-c2ccc(C(=O)N3CCc4ccccc4C3)o2)cc1`, the IC50 in assay [1] was determined as 2.6 µM; in assay [2] it was 13.6 µM; in assay [4] it was 10.2 µM. In addition, the inhibition in vivo at 10 mg/kg in assay [3] turned out to be 39.2%; in assay [6], 32.7%. Further, the Ratio IC50 in assay [5] stood at 3.92.

In the case of `Cc1ccc(-c2ccc(C(=O)N3CCCc4ccccc43)o2)cc1`, the IC50 came to 9.4 µM in assay [1], 35.2 µM in assay [2] and 50.1 µM in assay [4]. For the same compound, the Ratio IC50 in assay [5] was 5.33.

As to `COc1ccc(-c2ccc(C(=O)N3CCCc4ccccc43)o2)cc1`, the values for the IC50 in assay [1], in assay [2] and in assay [4] were 1.5 µM, 11.8 µM and 10.3 µM, respectively. Besides, the inhibition in vivo at 10 mg/kg in assay [3] is 46.8%; in assay [6], 40.1%. Besides, the Ratio IC50 in assay [5] amounted to 6.86.

On to `Cc1ccc(-c2ccc(C(=O)N3CCc4ccccc4C3)o2)cc1`, for which the IC50 in assay [1] was 9.4 µM; in assay [2], 44.1 µM; in assay [4], 56.8 µM. Moreover, in assay [5], the Ratio IC50 came out at 6.04.

Consider `O=C(c1ccc(-c2ccccc2F)o1)N1CCCc2ccccc21`, for which the IC50 is 50.3 µM in assay [1] and 92.8 µM in assay [2].

Consider `O=C(c1ccc(-c2ccccc2)o1)N1CCCc2ccccc21`, for which the results for the IC50 in assay [1] and in assay [2] were 70.9 µM and 142 µM, respectively.

Consider `O=C(c1ccc(-c2ccc(Cl)cc2)o1)N1CCc2ccccc2C1`, for which the IC50 in assay [1] turned out to be 4.1 µM; in assay [2] it was 28.6 µM; in assay [4] it was 25.2 µM. Further, the Ratio IC50 in assay [5] amounted to 6.14.

Values taken from ChEMBL document CHEMBL4265882, “Tetrahydroquinoline and tetrahydroisoquinoline derivatives as potential selective PDE4B inhibitors” (Bioorg Med Chem Lett, 2018).
